# Source: PubChem BioAssay (NCI)
# Values joined by “and” are separate entries in the source; they are usually repeats but may differ in a detail not shown here. Identical values can stand only once.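 Test compounds were applied to cells in 96-well plates for 48 hours at 5 doses. Here, GI50 denotes the concentration required for 50% inhibition of growth. TGI: concentration producing complete growth inhibition.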
# Tests used:
# Experiment in all cases: NCI tumour cell line growth inhibition, 48 h
# M14 melanoma = tested on: M14 melanoma
# DU-145 prostate = tested on: DU-145 prostate
# SNB-19 CNS = tested on: SNB-19 CNS
# SR leukemia = tested on: SR leukemia
# HCT-15 colon = tested on: HCT-15 colon
# CCRF-CEM leukemia = tested on: CCRF-CEM leukemia
# TK-10 renal = tested on: TK-10 renal
# PC-3 prostate = tested on: PC-3 prostate
# UACC-62 melanoma = tested on: UACC-62 melanoma
# NCI/ADR-RES ovarian = tested on: NCI/ADR-RES ovarian
SMILES,TGI (M14 melanoma),TGI (DU-145 prostate),TGI (SNB-19 CNS),TGI (SR leukemia),TGI (HCT-15 colon),TGI (CCRF-CEM leukemia),TGI (TK-10 renal),TGI (PC-3 prostate),TGI (UACC-62 melanoma),TGI (NCI/ADR-RES ovarian),GI50 (M14 melanoma),GI50 (DU-145 prostate),GI50 (SNB-19 CNS),GI50 (SR leukemia),GI50 (HCT-15 colon),GI50 (CCRF-CEM leukemia),GI50 (PC-3 prostate),GI50 (NCI/ADR-RES ovarian),GI50 (TK-10 renal),GI50 (UACC-62 melanoma)
Cc1ccc(S(=O)(=O)NC(=O)NC(CCCCN=C(N)N)C(=O)O)cc1 (configuration not stated),> 100 µM,> 100 µM,> 100 µM,> 100 µM,> 100 µM,> 100 µM,> 100 µM,> 100 µM,> 100 µM,> 100 µM,–,–,–,–,–,–,–,–,–,–
COC(=O)NNC(c1ccc(Cl)cc1)c1ccc(Cl)cc1,31.9 µM,> 100 µM,41.1 µM,54.8 µM,31.1 µM,54.1 µM,33.6 µM,30.5 µM,30.9 µM,39.8 µM,–,–,–,–,–,–,–,–,–,–
N#C/C(=C\c1ccc([N+](=O)[O-])s1)c1nc2cc(Cl)ccc2s1,1.68 µM,> 100 µM,> 100 µM,> 100 µM,0.622 µM,> 100 µM,–,3.42 µM,–,6.07 µM,0.382 µM,2.75 µM,1.58 µM,0.323 µM,0.246 µM,0.469 µM,1.31 µM,1.06 µM,–,–
CC(C)=CCOc1cc(NC(=S)c2ccsc2C)ccc1Cl,–,> 100 µM,> 100 µM,84.4 µM,> 100 µM,> 100 µM,> 100 µM,> 100 µM,> 100 µM,> 100 µM,–,–,–,–,–,–,–,–,–,–
C=C1[C@@](C)([C@@H]2CCCS2)[C@H]2C(C)=C[C@]1(C)n1c(=O)n(-c3ccccc3)c(=O)n12,> 100 µM,> 100 µM,> 100 µM,–,> 100 µM,> 100 µM,> 100 µM,> 100 µM,> 100 µM,> 100 µM,–,–,–,–,–,–,–,–,–,–
O=C1CC(C(OCc2ccccc2)C(OCc2ccccc2)C(COCc2ccccc2)OCc2ccccc2)CC(=O)N1 (configuration not stated),> 100 µM,> 100 µM,> 100 µM,> 100 µM,> 100 µM,80.4 µM and > 75 µM,> 100 µM,> 100 µM,–,> 100 µM,–,–,–,–,–,19.4 µM and 64.4 µM,–,–,–,–
COC(=O)[C@@](C)(COC(=O)C(C)(C)C)NC(=O)OC(C)(C)C,> 100 µM,> 100 µM,> 100 µM,> 100 µM,> 100 µM,> 100 µM,> 100 µM,> 100 µM,> 100 µM,> 100 µM,–,–,–,–,–,–,–,–,–,–
COC(=O)CCc1c(Cc2ccc[nH]2)[nH]c(C(=O)OCc2ccccc2)c1C,30.4 µM,> 100 µM,85.8 µM,66.5 µM,36.3 µM,> 100 µM,76.2 µM,60 µM,66.8 µM,52.1 µM,–,–,–,–,–,–,–,–,–,–
CC(=O)NC1=C(NCCCl)C(=O)c2ccccc2C1=O,27.7 µM,> 100 µM,> 100 µM,> 100 µM,> 100 µM,66 µM,–,96.2 µM,42.9 µM,74 µM,–,–,–,–,–,–,–,–,–,–
Cc1ccnc2nc(N)ccc12,> 100 µM,> 100 µM,> 100 µM,> 100 µM,> 100 µM,> 100 µM,> 100 µM,> 100 µM,> 100 µM,> 100 µM,–,–,–,–,–,–,–,–,–,–
COc1ccc(/C=C/C(=O)c2ccc(-n3cc(CN4CCN(c5cc6c(cc5F)c(=O)c(C(=O)O)cn6C5CC5)CC4)nn3)cc2)cc1OC,–,34.9 µM,66.7 µM,> 100 µM,> 100 µM,> 100 µM,> 100 µM,15.7 µM,8.84 µM,> 100 µM,–,3.67 µM,4.52 µM,0.434 µM,2.25 µM,2.63 µM,2.54 µM,> 100 µM,5.61 µM,2.83 µM
CC(=O)OC1C2CCC3C(C)(O)C4CC(O)C(C)(C)C4(O)C(O)CC13CC2(C)O (configuration not stated),> 100 µM,> 100 µM,> 100 µM,> 100 µM,> 100 µM,> 100 µM,> 100 µM,> 100 µM,> 100 µM,> 100 µM,–,–,–,–,–,–,–,–,–,–
Cc1nc2n(c1/C=C1/C(=O)Nc3ccccc31)CCS2,> 100 µM,> 100 µM,> 100 µM,–,> 100 µM,> 100 µM,> 100 µM,> 100 µM,> 100 µM,> 100 µM,–,–,–,–,–,–,–,–,–,–
[O-][n+]1c(CN2CCCCC2)nc2cccc3c2c1-c1ccccc1-3,31.3 µM,41.5 µM,89.4 µM,> 100 µM,> 100 µM,–,67.5 µM,> 100 µM,32.8 µM,84.6 µM,–,–,–,–,–,–,–,–,–,–
CC1(C)C(CCO)CC1n1ccc(=O)[nH]c1=O (configuration not stated),> 100 µM,> 100 µM,> 100 µM,–,> 100 µM,> 100 µM,> 100 µM,> 100 µM,> 100 µM,> 100 µM,–,–,–,–,–,–,–,–,–,–
NC(Cc1c[nH]c2cc([N+](=O)[O-])ccc12)C(=O)O (configuration not stated),> 100 µM,> 100 µM,> 100 µM,> 100 µM,> 100 µM,–,> 100 µM,> 100 µM,> 100 µM,> 100 µM,–,–,–,–,–,–,–,–,–,–
Nc1nccc(NCC2(CO)CCC2)n1,–,> 100 µM,–,> 100 µM,> 100 µM,> 100 µM,77.4 µM,> 100 µM,> 100 µM,> 100 µM,–,–,–,–,–,–,–,–,–,–
CCN(CC)CCCNC(=O)c1cc2cc(NC(=O)c3cc4cc([N+](=O)[O-])ccc4[nH]3)ccc2[nH]1,> 100 µM,> 100 µM,> 100 µM,> 100 µM,> 100 µM,–,> 100 µM,> 100 µM,96.3 µM,> 100 µM,–,–,–,–,–,–,–,–,–,–
CC(=O)OC12c3ccccc3C(c3ccccc31)C1C(=O)N(c3ccccn3)C(=O)C12 (configuration not stated),> 100 µM,> 100 µM,> 100 µM,–,> 100 µM,> 100 µM,> 100 µM,> 100 µM,> 100 µM,> 100 µM,–,–,–,–,–,–,–,–,–,–
O=C1CC(C(CC(=O)c2ccccc2)c2ccccc2)C(=O)c2ccccc2N1 (configuration not stated),> 100 µM,> 100 µM,> 100 µM,> 100 µM,94.9 µM,> 100 µM,–,> 100 µM,> 100 µM,75.5 µM,–,–,–,–,–,–,–,–,–,–
